Data taken from patent EP4707280A1, “1,4-CINEOLE DERIVATIVE AND INTERMEDIATE THEREOF, HERBICIDE CONTAINING SAID DERIVATIVE AS ACTIVE INGREDIENT, METHOD FOR USING HERBICIDE, AND METHOD FOR PREPARING AGROCHEMICAL COMPOSITION” (HOKKO CHEMICAL INDUSTRY CO., LTD., priority 2023, dated 2024).

How the values were obtained:
Type in all cases: in vivo
[1] = tested on: Echinochloa crus-galli var. formosensis; assay: Test Example 1: herbicidal effect test by soil application in paddy rice; conditions: 120 g active ingredient per 10 ares, applied immediately after sowing, flooded pots, 14 days after application; for pest or weed control at 1200 g/ha: Echinochloa crus-galli, soil, 336 h, read-out: weed inhibition rate
Outline: (§1)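 Soil-applied test under flooded paddy conditions (~3 cm water) in a glass greenhouse. Seeds were sown shallow (0–1 cm, 30 per species), then compound was dripped in as diluted emulsifiable concentrate at 120 g a.i./10 a.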

Scirpus juncoides [2] = assay: as above; conditions: 120 g active ingredient per 10 ares, applied immediately after sowing, flooded pots, 14 days after application; for pest or weed control at 1200 g/ha: Schoenoplectiella juncoides, soil, 336 h, read-out: weed inhibition rate
Outline: as §1

Monochoria vaginalis [3] = assay: as above; conditions: 120 g active ingredient per 10 ares, applied immediately after sowing, flooded pots, 14 days after application; for pest or weed control at 1200 g/ha: Pontederia vaginalis, soil, 336 h, read-out: weed inhibition rate
Description: (§2) Wagner pots with an area of […] were filled with paddy soil, followed by addition of water and incorporation of chemical fertilizer (N:P:K = 16:16:16), after which puddling was performed. After that, seeds of Echinochloa crus-galli var. formosensis, broad-leaved weeds (Lindernia pyxidaria and Monochoria vaginalis), and Scirpus juncoides were sown at a depth of 0 cm to 1 cm, 30 seeds each. Immediately after sowing, the pots were flooded and a water depth of approximately 3 cm was maintained. Subsequent management was conducted in a glass greenhouse. Immediately thereafter, an emulsifiable concentrate prepared according to Formulation Example 5 using the compound shown below was diluted with water, and a specified amount of the diluted solution was applied by dropper. The amount of the active ingredient to be applied was equivalent to 120 g per 10 ares.
(§3) The present test was conducted in duplicate for each chemical concentration group, and the weed inhibition rate (%) was determined 14 days after chemical application using the following formula (Math. 1). [formula]

[4] = tested on: Echinochloa crus-galli var. formosensis; assay: Test Example 2: herbicidal effect test by application during growth period of paddy rice; conditions: 120 g per 10 ares, applied seven days after sowing, flooded pots, 14 days after application; for inhibition at 1200 g/ha: Echinochloa crus-galli, read-out: weed inhibition rate
Outline: (§4)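 Paddy soil in Wagner pots was puddled with N:P:K 16:16:16 fertilizer, sown with 30 weed seeds per species at 0–1 cm and flooded to about 3 cm. Seven days after sowing, a water-diluted emulsifiable concentrate was dropped onto the water at 120 g active ingredient per 10 ares. Weed inhibition (%) was scored at 14 days, in duplicate.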

Monochoria vaginalis [5] = assay: as above; conditions: 120 g per 10 ares, applied seven days after sowing, flooded pots, 14 days after application; for inhibition at 1200 g/ha: Pontederia vaginalis, read-out: weed inhibition rate
Outline: as §4

Scirpus juncoides [6] = assay: as above; conditions: 120 g per 10 ares, applied seven days after sowing, flooded pots, 14 days after application; for inhibition at 1200 g/ha: Schoenoplectiella juncoides, read-out: weed inhibition rate
Outline: as §4

Digitaria ciliaris [7] = assay: Test Example 3: herbicidal effect test by soil application in upland field; conditions: 120 g per 10 ares, sprayed one day after sowing, 14 days after application; for inhibition at 1200 g/ha: Digitaria ciliaris, read-out: weed inhibition rate
Outline: (§5)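 Pre-emergence test: seeds mixed into top 1 cm of alluvial loam upland soil in pots; emulsifiable concentrate diluted in water sprayed on soil one day after sowing at 100 L/10 a, 120 g a.i./10 a. Weed inhibition rate (%) scored at 14 days, in duplicate.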

Echinochloa crus-galli [8] = assay: as above; conditions: 120 g per 10 ares, sprayed one day after sowing, 14 days after application; for inhibition at 1200 g/ha: Echinochloa crus-galli, read-out: weed inhibition rate
Outline: as §5

Digitaria ciliaris [9] = assay: Test Example 4: herbicidal effect test by stem and leaf treatment in upland field; conditions: 120 g per 10 ares, sprayed seven days after sowing, upland soil, 14 days after application; for inhibition at 1200 g/ha: Digitaria ciliaris, read-out: weed inhibition rate
Echinochloa crus-galli [10] = assay: as above; conditions: 120 g per 10 ares, sprayed seven days after sowing, upland soil, 14 days after application; for inhibition at 1200 g/ha: Echinochloa crus-galli, read-out: weed inhibition rate
[11] = tested on: Echinochloa crus-galli var. formosensis; assay: Test Example 5: herbicidal effect test by soil application in paddy rice (low dose); conditions: 7.5 g per 10 ares, applied immediately after sowing, flooded pots, 14 days after application; for inhibition at 75 g/ha: Echinochloa crus-galli, soil, 336 h, read-out: weed inhibition rate
Outline: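 Paddy soil in Wagner pots was fertilized (N:P:K 16:16:16), puddled, sown with 30 seeds per weed species at 0–1 cm, then flooded to ~3 cm in a glass greenhouse. Emulsifiable concentrate diluted in water was dropper-applied into floodwater immediately, at 7.5 g active ingredient per 10 ares; duplicates, scored at 14 days.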

[12] = tested on: Echinochloa crus-galli var. formosensis; assay: Test Example 6: herbicidal effect test by application during growth period of paddy rice (low dose); conditions: 7.5 g per 10 ares, applied seven days after sowing, flooded pots, 14 days after application; for inhibition at 75 g/ha: Echinochloa crus-galli, read-out: weed inhibition rate
Outline: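 Paddy-soil pots, flooded ~3 cm after sowing weed seeds at 0-1 cm depth, greenhouse-grown. Seven days after sowing, diluted emulsifiable concentrate applied by dropper at 7.5 g active ingredient per 10 ares. Weed inhibition rate (%) scored 14 days after application, in duplicate.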

Digitaria ciliaris [13] = assay: Test Example 7: herbicidal effect test by soil application in upland field (low dose); conditions: 7.5 g per 10 ares, sprayed one day after sowing, 14 days after application
Outline: (§6)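 Pre-emergence soil application: upland alluvial loam pots sown with weed seeds mixed into the top 1 cm; one day after sowing, a water-diluted emulsifiable concentrate was sprayed on the soil at 100 L per 10 a, delivering 7.5 g active ingredient per 10 a. Weed inhibition rate (%) scored 14 days after application, duplicate pots.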

Echinochloa crus-galli [14] = assay: as above; conditions: 7.5 g per 10 ares, sprayed one day after sowing, 14 days after application
Outline: as §6

Digitaria ciliaris [15] = assay: Test Example 8: herbicidal effect test by stem and leaf treatment in upland field (low dose); conditions: 7.5 g per 10 ares, sprayed seven days after sowing, upland soil, 14 days after application
Echinochloa crus-galli [16] = assay: as above; conditions: 7.5 g per 10 ares; sprayed seven days after sowing, upland soil; 14 days after application
Scirpus juncoides [17] = assay: Test Example 5: herbicidal effect test by soil application in paddy rice (low dose); conditions: Schoenoplectiella juncoides, 336 h, 7.5 g per 10 ares, applied immediately after sowing, flooded pots, 14 days after application, read-out: weed inhibition rate
Description: as §3
as §2, with “(Monochoria” for “(Lindernia pyxidaria and Monochoria”, “7.5” for “120”
The present test was conducted in duplicate for each chemical concentration group, and the herbicidal effect was evaluated 14 days after chemical application using the same criteria as in Test Example 1.

Amaranthus viridis = assay: Test Example 3: herbicidal effect test by soil application in upland field; conditions: Amaranthus viridis, 120 g per 10 ares, sprayed one day after sowing, 14 days after application, read-out: weed inhibition rate
Outline: as §5

CC(C)[C@]12C[C@@H](OCc3ccccc3F)[C@](C)(C[C@@H]1Cl)O2 [1-12]
≥ 80%: weed inhibition rate [1] | weed inhibition rate (Scirpus juncoides [2]) | weed inhibition rate (Monochoria vaginalis [3]) | weed inhibition rate [4] | weed inhibition rate (Monochoria vaginalis [5]) | weed inhibition rate (Scirpus juncoides [6]) | weed inhibition rate (Digitaria ciliaris [7]) | weed inhibition rate (Echinochloa crus-galli [8]) | weed inhibition rate (Digitaria ciliaris [9]) | weed inhibition rate (Echinochloa crus-galli [10]) | weed inhibition rate [11] | weed inhibition rate [12] | weed inhibition rate (Digitaria ciliaris [13]) | weed inhibition rate (Echinochloa crus-galli [14]) | weed inhibition rate (Digitaria ciliaris [15]) | weed inhibition rate (Echinochloa crus-galli [16])

Cc1ccccc1CO[C@H]1C[C@]2(C)O[C@@]1(C(C)C)C[C@H]2OCc1ccccc1C [1-597, (1S,2R,4R,5S)-1-methyl-2,5-bis[(2-methylphenyl)methoxy]-4-isopropyl-7-oxabicyclo[2.2.1]heptane]
≥ 80%: pest or weed control at 1200 g/ha [1] | pest or weed control at 1200 g/ha (Scirpus juncoides [2]) | pest or weed control at 1200 g/ha (Monochoria vaginalis [3]) | inhibition at 1200 g/ha [4] | inhibition at 1200 g/ha (Monochoria vaginalis [5]) | inhibition at 1200 g/ha (Scirpus juncoides [6]) | inhibition at 1200 g/ha (Digitaria ciliaris [9]) | inhibition at 1200 g/ha (Echinochloa crus-galli [10])

CCC[C@@H]1C[C@]2(C)O[C@@]1(C(C)C)C[C@H]2OCc1ccccc1F [1-914, (1S,2R,4R,5R)-2-[(2-fluorophenyl)methoxy]-1-methyl-4-isopropyl-5-propyl-7-oxabicyclo[2.2.1]heptane]
≥ 80%: pest or weed control at 1200 g/ha [1] | pest or weed control at 1200 g/ha (Scirpus juncoides [2]) | pest or weed control at 1200 g/ha (Monochoria vaginalis [3]) | inhibition at 1200 g/ha [4] | inhibition at 1200 g/ha (Monochoria vaginalis [5]) | inhibition at 1200 g/ha (Scirpus juncoides [6]) | inhibition at 1200 g/ha (Digitaria ciliaris [7]) | inhibition at 1200 g/ha (Echinochloa crus-galli [8]) | inhibition at 1200 g/ha (Digitaria ciliaris [9]) | inhibition at 1200 g/ha (Echinochloa crus-galli [10]) | inhibition at 75 g/ha [11] | inhibition at 75 g/ha [12]

CC(C)[C@]12C[C@@H](OCc3ccccc3F)[C@](C)(CC1C1CCCC1)O2 (stereo partly drawn) [1-920, (1R,4S,5R)-2-cyclopentyl-5-[(2-fluorobenzyl)oxy]-1-isopropyl-4-methyl-7-oxabicyclo[2.2.1]heptane]
≥ 80%: pest or weed control at 1200 g/ha [1] | pest or weed control at 1200 g/ha (Scirpus juncoides [2]) | pest or weed control at 1200 g/ha (Monochoria vaginalis [3]) | inhibition at 1200 g/ha [4] | inhibition at 1200 g/ha (Monochoria vaginalis [5]) | inhibition at 1200 g/ha (Scirpus juncoides [6]) | inhibition at 1200 g/ha (Digitaria ciliaris [9]) | inhibition at 1200 g/ha (Echinochloa crus-galli [10]) | inhibition at 75 g/ha [11] | inhibition at 75 g/ha [12]

CC(C)[C@]12C[C@@H](OCc3ccccc3F)[C@](C)(CC1c1cccc(F)c1)O2 (stereo partly drawn) [1-923, (1S,2R,4R)-2-((2-fluorobenzyl)oxy)-5-(3-fluorophenyl)-4-isopropyl-1-methyl-7-oxabicyclo[2.2.1]heptane]
≥ 80%: pest or weed control at 1200 g/ha [1] | pest or weed control at 1200 g/ha (Scirpus juncoides [2]) | inhibition at 1200 g/ha [4] | inhibition at 1200 g/ha (Echinochloa crus-galli [8]) | inhibition at 1200 g/ha (Echinochloa crus-galli [10]) | inhibition at 75 g/ha (Scirpus juncoides [17])

CC(C)[C@]12C[C@@H](OCc3ccccc3F)[C@](C)(CC1CCc1ccccc1)O2 (stereo partly drawn) [1-929, (1S,2R,4R)-2-((2-fluorobenzyl)oxy)-4-isopropyl-1-methyl-5-phenethyl-7-oxabicyclo[2.2.1]heptane]
≥ 80%: pest or weed control at 1200 g/ha [1] | pest or weed control at 1200 g/ha (Scirpus juncoides [2]) | pest or weed control at 1200 g/ha (Monochoria vaginalis [3]) | inhibition at 1200 g/ha [4] | inhibition at 1200 g/ha (Monochoria vaginalis [5]) | inhibition at 1200 g/ha (Digitaria ciliaris [7]) | inhibition at 1200 g/ha (Echinochloa crus-galli [8]) | inhibition at 1200 g/ha (Digitaria ciliaris [9]) | inhibition at 1200 g/ha (Echinochloa crus-galli [10]) | inhibition at 75 g/ha [11] | inhibition at 75 g/ha [12] | inhibition at 75 g/ha (Digitaria ciliaris [15]; Digitaria ciliaris, read-out: weed inhibition rate)

COc1ccc(CO[C@@H]2C[C@]3(C(C)C)O[C@@]2(C)CC3=O)cc1 [2-346, (1R,4S,5R)-1-isopropyl-5-((4-methoxybenzyl)oxy)-4-methyl-7-oxabicyclo[2.2.1]heptan-2-one]
≥ 80%: inhibition at 1200 g/ha [4] | inhibition at 1200 g/ha (Amaranthus viridis)

CC(C)[C@]12C[C@@H](OCc3ccccc3F)[C@](C)(C=C1c1ccccc1)O2 [3-177, (1R,4S,5R)-5-((2-fluorobenzyl)oxy)-1-isopropyl-4-methyl-2-phenyl-7-oxabicyclo[2.2.1]hept-2-ene]
≥ 80%: pest or weed control at 1200 g/ha [1] | pest or weed control at 1200 g/ha (Scirpus juncoides [2]) | pest or weed control at 1200 g/ha (Monochoria vaginalis [3]) | inhibition at 1200 g/ha [4] | inhibition at 1200 g/ha (Monochoria vaginalis [5]) | inhibition at 1200 g/ha (Scirpus juncoides [6]) | inhibition at 1200 g/ha (Digitaria ciliaris [7]) | inhibition at 1200 g/ha (Echinochloa crus-galli [8]) | inhibition at 1200 g/ha (Digitaria ciliaris [9]) | inhibition at 1200 g/ha (Echinochloa crus-galli [10]) | inhibition at 75 g/ha [12]
